Laboratory results as given in publication PMC9843700 (Nature biotechnology, 2021).
pIC50: −log10 of the molar value.

How the values were obtained:
[1] = test system: Ebola virus (EBOV/May-eGFP); test: microbe, parasite or virus in culture; assay type: cell-based; settings: Zaire ebolavirus, read-out: IC50, EBOV infection inhibition
[2] = test system: SARS CoV-2 (USA_WA1/2020); assay type: cell-based
[3] = test system: cell viability; test: ATP content assay for cell viability and compound cytotoxicity

Row | SMILES | pIC50 [1] | selectivity index (SI) [2] | pIC50 ([2]; read-out: IC50, SARS-CoV-2 CPE assay) | inhibition of cell viability (slight cytotoxicity) ([3]; maximal effect) [%] | pIC50 ([3]; read-out: cytotoxicity IC50 (cell viability), counter assay to CPE)
1 | CC(C(O)c1ccccc1)N(C)CCOC(c1ccccc1)c1ccccc1 (stereo not drawn) [difeterol] | ≥ 5.30 |  |  |  | 
2 | Cc1cccc(C=NNc2cc(N3CCOCC3)nc(N3CCOCC3)n2)c1 [MLS000699212-03, Benzaldehyde, 3-methyl-, 2-(2,6-di-4-morpholinyl-4-pyrimidinyl) hydrazone] |  | 28 | 6.30 | 55 | 4.85
3 | CCOC(=O)c1c(CSc2ccccc2)n(C)c2cc(Br)c(O)c(CN(C)C)c12 [umifenovir] | ≥ 5.30 |  |  |  | 
